Data reported in patent US10308637B2 (LifeSci Pharmaceuticals, Inc., priority 2015, dated 2019).

Assay: Contact Assay (percentage inhibition from fluorescence intensity)
Assay type: biochemical
Protocol: The percentage inhibition was calculated using the following equation:
[formula] where, Mean(BG) is the average value of the fluorescence intensity of the background wells and Mean(PC) is the average value of the fluorescence intensity of the positive control wells.
Table 4 provides the EC50 values of various compounds disclosed herein.

EC50 [µM]	SMILES
≤ 0.1	Cc1cc(N)nc(C)c1CNC(=O)c1ccnc(Cc2cc(N)c3ncc(Cl)cc3c2)c1 [Example 217, N-((6-amino-2,4-dimethylpyridin-3-yl)methyl)-2-((8-amino-3-chloroquinolin-6-yl)methyl)isonicotinamide]
≤ 0.1	Cc1nc(N)ccc1CNC(=O)c1ccnc(Cc2cc(C(C)(C)O)c3ncc(Cl)cc3c2)c1 [Example 220, N-((6-amino-2-methylpyridin-3-yl)methyl)-2-((3-chloro-8-(2-hydroxypropan-2-yl)quinolin-6-yl)methyl)isonicotinamide]
0.1 to 1	CC(C)(O)c1cc(Cc2cc(C(=O)NCc3cc4c(Cl)c[nH]c4cc3F)ccn2)cc2cc(Cl)cnc12 [Example 221, N-((3-chloro-6-fluoro-1H-indol-5-yl)methyl)-2-((3-chloro-8-(2-hydroxypropan-2-yl)quinolin-6-yl)methyl)isonicotinamide]
0.1 to 1	CC(C)(O)c1cc(Cc2cc(C(=O)NCc3ccc4[nH]cc(Cl)c4c3F)ccn2)cc2cc(Cl)cnc12 [Example 222, N-((3-chloro-4-fluoro-1H-indol-5-yl)methyl)-2-((3-chloro-8-(2-hydroxypropan-2-yl)quinolin-6-yl)methyl)isonicotinamide]
≤ 0.1	CC(C)(O)c1cc(Cc2cc(C(=O)NCc3ccc4c(N)nccc4c3)ccn2)cc2cc(Cl)cnc12 [Example 224, N-((1-aminoisoquinolin-6-yl)methyl)-2-((3-chloro-8-(2-hydroxypropan-2-yl)quinolin-6-yl)methyl)isonicotinamide]
0.1 to 1	CC(C)(O)c1cc(Cc2cc(C(=O)NCc3n[nH]c4ccc(Cl)cc34)ccn2)cc2cc(Cl)cnc12 [Example 225, N-((5-chloro-1H-indazol-3-yl)methyl)-2-((3-chloro-8-(2-hydroxypropan-2-yl)quinolin-6-yl)methyl)isonicotinamide]
≤ 0.1	Cc1cc(N)nc(C)c1CNC(=O)c1ccnc(Cc2cnc3cc(F)c(Cl)cc3c2)c1 [Example 226, N-((6-amino-2,4-dimethylpyridin-3-yl)methyl)-2-((6-chloro-7-fluoroquinolin-3-yl)methyl)isonicotinamide]

Second part, the compound before the results:

SMILES	EC50 [µM]
Cc1cc(N)nc(C)c1CNC(=O)c1cc(CC(N)=O)nc(Cc2ccc3ncc(Cl)cc3c2)c1 [Example 214, N-((6-amino-2,4-dimethylpyridin-3-yl)methyl)-2-(2-amino-2-oxoethyl)-6-((3-chloroquinolin-6-yl)methyl)isonicotinamide]	≤ 0.1
Cc1cc(N)nc(C)c1CNC(=O)c1ccnc(Cc2cc3cc(C(F)(F)F)cnc3[nH]2)c1 [Example 215, N-((6-amino-2,4-dimethylpyridin-3-yl)methyl)-2-((5-(trifluoromethyl)-1H-pyrrolo[2,3-b]pyridin-2-yl)methyl)isonicotinamide]	0.1 to 1
Cc1cc(N)nc(C)c1CNC(=O)c1ccnc(Cc2cc(C(C)(C)O)c3ncc(Cl)cc3c2)c1 [Example 219, N-((6-amino-2,4-dimethylpyridin-3-yl)methyl)-2-((3-chloro-8-(2-hydroxypropan-2-yl)quinolin-6-yl)methyl)isonicotinamide]	≤ 0.1
CC(C)(O)c1cc(Cc2cc(C(=O)NCc3cnc4[nH]cc(Cl)c4c3)ccn2)cc2cc(Cl)cnc12 [Example 223, N-((3-chloro-1H-pyrrolo[2,3-b]pyridin-5-yl)methyl)-2-((3-chloro-8-(2-hydroxypropan-2-yl)quinolin-6-yl)methyl)isonicotinamide]	≤ 0.1
Cc1cc(N)nc(C)c1CNC(=O)c1ccnc(Cc2ccc3ncc(C(F)(F)F)cc3c2)c1 [Example 228, N-((6-amino-2,4-dimethylpyridin-3-yl)methyl)-2-((3-(trifluoromethyl)quinolin-6-yl)methyl)isonicotinamide]	≤ 0.1
Cc1nc(N)ccc1CNC(=O)c1ccnc(Cc2ccc3ncc(C(F)(F)F)cc3c2)c1 [Example 229, N-((6-amino-2-methylpyridin-3-yl)methyl)-2-((3-(trifluoromethyl)quinolin-6-yl)methyl)isonicotinamide]	≤ 0.1
